According to patent US9790253B2, “OSW-1 analogs and conjugates, and uses thereof” (priority 2011, dated 2017):

What was measured:
OSBP1-myc-his = molecular target: T1, OSBP1-myc-his (Homo sapiens, UniProt P22059); assay: [3H]-25-hydroxycholesterol charcoal-dextran binding assay with OSBP1-myc-his; settings: for Ki: competition with 20 nM [3H]-25-OHC, HEK-293T S100 lysate, 4° C., 16 h, read-out: [^3H]-25-OHC K1 (nM) OSBP1-myc-his
T1 construct: made in house; host or cells: HEK-293T (transient transfection; S100 lysate, not purified)
T1 sequence (P22059 1-807): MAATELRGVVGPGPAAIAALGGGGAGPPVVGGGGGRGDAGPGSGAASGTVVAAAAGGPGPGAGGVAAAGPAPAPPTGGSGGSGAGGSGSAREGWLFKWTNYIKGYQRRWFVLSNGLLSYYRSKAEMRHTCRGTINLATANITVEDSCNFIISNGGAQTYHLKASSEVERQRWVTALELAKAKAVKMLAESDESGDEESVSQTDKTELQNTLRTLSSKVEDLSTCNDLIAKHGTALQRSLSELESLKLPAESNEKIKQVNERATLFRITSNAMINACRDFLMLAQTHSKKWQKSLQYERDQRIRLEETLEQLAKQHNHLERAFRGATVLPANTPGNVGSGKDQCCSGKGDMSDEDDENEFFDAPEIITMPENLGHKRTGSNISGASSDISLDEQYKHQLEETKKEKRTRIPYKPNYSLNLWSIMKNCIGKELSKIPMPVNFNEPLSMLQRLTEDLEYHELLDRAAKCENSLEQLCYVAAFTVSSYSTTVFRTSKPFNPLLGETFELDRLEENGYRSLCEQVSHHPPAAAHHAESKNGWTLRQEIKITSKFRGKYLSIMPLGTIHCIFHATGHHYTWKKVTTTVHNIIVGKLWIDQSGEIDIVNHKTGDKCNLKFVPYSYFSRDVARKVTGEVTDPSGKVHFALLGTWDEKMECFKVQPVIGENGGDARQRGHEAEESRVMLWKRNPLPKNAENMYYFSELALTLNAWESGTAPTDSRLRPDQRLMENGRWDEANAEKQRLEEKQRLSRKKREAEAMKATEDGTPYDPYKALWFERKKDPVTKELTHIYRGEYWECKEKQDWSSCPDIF
Excerpt: [^3H]-25-Hydroxycholesterol charcoal-dextran binding assay.
Methods are described above in the General Methods section.

[1] = system: HeLa cells overexpressing OSBP1(V582M); assay: Overexpression-viability assay, OSBP1(V582M)-myc-his; format: cell-based; settings: 48 h
Experimental: Overexpression-viability assays with wild-type and mutant OSBP/ORP4L constructs were carried out by transfecting HeLa cells with the appropriate plasmids using Lipofectamine™ LTX with PLUS™ reagent (Invitrogen) as instructed, and after 8 h of transfection, the cells were re-plated for the cell viability assay, performed as described above. Expression levels were evaluated by immunoblotting at the time of dosing.
For additional support that OSBP1 and ORP4L are targets of the ORPphilins, dominant drug-resistant alleles of these proteins were sought. 15 OSBP1 residues inside and outside the region of the protein previously reported to mediate sterol binding were mutated (FIG. 4C). The growth inhibition induced by the ORPphilins was determined in HeLa cells overexpressing either wild-type or mutant OSBP1-myc-his proteins. Expression of wt OSBP1-myc-his and mutant OSBP1-myc-his were nearly equivalent as measured by western blot.
The same mutant caused a 3.9-fold reduction in the antiproliferative activity of OSW-1 (2) (FIG. 4E2) and a 2.7-fold reduction in the activity of schweinfurthin A (4a) (FIG. 4E3). […] The antiproliferative activity of taxol was unaffected by expression of these two OSBP1 mutant proteins (FIGS. 4E4, 4E8).

ORP4L-myc-his = molecular target: T2, ORP4L-myc-his (Homo sapiens, UniProt Q969R2); assay: [3H]-25-hydroxycholesterol charcoal-dextran binding assay with ORP4L-myc-his; settings: for Ki: read-out: [^3H]-25-OHC K1 (nM) ORP4L-myc-his, competition with 20 nM [3H]-25-OHC, HEK-293T S100 lysate, 4° C., 16 h; for fold lower affinity for ORP4L than for OSBP1: ratio of Ki values
T2 sequence (Q969R2 1-916): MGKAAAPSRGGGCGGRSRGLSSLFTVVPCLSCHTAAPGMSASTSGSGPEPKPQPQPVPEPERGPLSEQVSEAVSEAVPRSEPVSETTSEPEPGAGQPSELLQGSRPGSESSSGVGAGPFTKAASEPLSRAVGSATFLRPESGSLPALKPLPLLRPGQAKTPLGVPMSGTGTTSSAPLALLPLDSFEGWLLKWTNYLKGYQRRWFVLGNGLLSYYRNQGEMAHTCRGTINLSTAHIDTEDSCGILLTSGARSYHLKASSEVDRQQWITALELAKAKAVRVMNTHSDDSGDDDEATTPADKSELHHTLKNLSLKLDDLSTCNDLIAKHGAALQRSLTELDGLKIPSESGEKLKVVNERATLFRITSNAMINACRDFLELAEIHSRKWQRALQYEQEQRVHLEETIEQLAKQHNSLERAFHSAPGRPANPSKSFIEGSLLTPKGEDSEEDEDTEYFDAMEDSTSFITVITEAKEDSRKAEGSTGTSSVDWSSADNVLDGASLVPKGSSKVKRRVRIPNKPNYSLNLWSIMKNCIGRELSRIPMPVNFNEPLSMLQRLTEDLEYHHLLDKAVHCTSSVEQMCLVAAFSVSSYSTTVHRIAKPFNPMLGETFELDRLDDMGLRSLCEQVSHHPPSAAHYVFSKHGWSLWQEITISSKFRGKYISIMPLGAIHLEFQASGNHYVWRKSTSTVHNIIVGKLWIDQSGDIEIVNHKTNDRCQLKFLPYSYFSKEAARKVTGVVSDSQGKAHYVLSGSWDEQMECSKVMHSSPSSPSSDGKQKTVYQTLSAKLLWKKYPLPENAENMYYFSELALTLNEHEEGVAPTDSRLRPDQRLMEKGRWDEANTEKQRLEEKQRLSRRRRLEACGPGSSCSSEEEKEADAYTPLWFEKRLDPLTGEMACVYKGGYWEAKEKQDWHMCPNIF
Experimental: [^3H]-25-Hydroxycholesterol charcoal-dextran binding assay. […] These vectors were transfected into HEK-293T cells using Lipofectamine™2000 (Invitrogen), and 48 h after transfection, on-plate lysis of the transfected cells with the M-Per®/HALT™ with EDTA (ThermoScientific) reagent was performed, followed by ultracentrifugation at 100,000 g. The S100 lysate was diluted to 0.2 mg/mL, aliquoted and stored at −80° C. until use. The HEK-293T OSBP1-, ORP4L- or lacZ-myc-his lysate was incubated with [^3H]-25-hydroxycholesterol at 4° C. for 16 h in 96-well plates. After incubation, charcoal/dextran (C/D) was added to the wells for 30 min of shaking at RT, followed by centrifugation for 15 min at 1900 g to pellet the C/D. The C/D-cleared lysate was added to MicroScint™-20 (PerkinElmer) scintillation fluid, and the remaining protein-bound radiolabel was quantified using a TopCount™ scintillation counter. [^3H]-25-hydroxycholesterol binding curves and competition curves were repeated at least three times.
Lysates were thawed on ice, with brief periods of hand warming. Both the ^3H-25-OHC direct binding assays and the ^3H-25-OHC competition binding assays were set up similarly, with a large stock of binding assay lysate being prepared, then 73.5 μL of the binding assay mixture dispensed using a multi-channel pipettor into “V”-shaped 96-well plates. For the ^3H-25-OHC direct binding assay, 1.5 μL of ^3H-25-OHC and ^3H-25-OHC/40×25-OHC added to the wells in dilutions in 100% ethanol. For the ^3H-25-OHC competition binding assays, ^3H-25-OHC was added to the large stock of binding assay lysate to a final concentration of 20 nM. This ^3H-25-OHC-containing binding lysate was then dispensed using a multi-channel pipettor into the 96-well plates. Then, 1.5 μL of a serial dilution of the inhibitors in either 100% ethanol (25-OHC) or DMSO (the ORPphilins) was added to each well.
The binding lysate used in each well of the 96-well plate consisted of 60 μL of 0.2 mg/mL S100 lysate, 7.5 μL 20% PVA, and 5.6 μL 2M KCl. For ^3H-25-OHC binding curve experiments, 0.4 μL of buffer was then added (total volume per well: 73.5 μL). For the ^3H-25-OHC inhibition competition assays, 0.11 μL of 13.2 μM ^3H-25-OHC and 0.29 μL binding buffer was added for each well (total volume per well: 73.5 μL).
Binding assays were incubated, standing, for 16 h at 4° C. Then 30 μL of the rt C/D solution was multichannel pipetted into new “V’ shaped 96-well plates, and 60 μL of the binding lysate mixture was then added. The plates were briefly, lightly vortexed (˜10 sec), 10 and then rocked at 250 rpm for 30 min at rt. The plates were then centrifuged at 1900 g for 15 min at 4° C. in Microplate Carriers (Sorvall cat. #75006449S) in a Sorvall Legend RT centrifuge. Carefully so as to not disturb the C/D pellet, 30 μL of the supernatant was transferred to 170 μL of Microscint-20 in the OptiPlates. The plates were sealed with the TopSealA-Films, and vigorously vortexed (max speed, >1 min). ^3H-25-OHC detection in the wells was then performed using a TopCount Scintillation detector, counting each well for 2 min. Data was graphed and analyzed using GraphPad PrismS, using non-linear regression to determine KD and K1 values.
Binding experiments were performed at 4° C. for 16 h. Unbound sterol was removed using dextran-coated charcoal, and protein-bound sterol left in the supernatant was quantified by scintillation counting. Ki-values were determined as mean±s.d. from at least three independent experiments.

| Compound | Ki (OSBP1-myc-his) | reduction in antiproliferative activity, OSBP1(V582M) vs wt OSBP1 [1] | Ki (ORP4L-myc-his) | Kd (OSBP1-myc-his; direct binding) | Kd (ORP4L-myc-his; read-out: Kd of [3H]-25-hydroxycholesterol, ORP4L, direct binding) | fold lower affinity for ORP4L than for OSBP1 (ORP4L-myc-his) | fold lower affinity for ORP4L than for OSBP1 (ORP4L-myc-his; listed as 4a) |
| --- | --- | --- | --- | --- | --- | --- | --- |
| C[C@@H]1[C@]2(O[C@H]3C=C4[C@@H]5CC[C@H]6Cc7nc8c(nc7C[C@]6(C)[C@H]5C[C@@H](O)[C@]4(C)[C@]31O)C[C@@H]1CC[C@H]3C4=CC[C@@H]5[C@H](C)[C@@]6(OC[C@]45C(=O)C[C@@H]3[C@@]1(C)C8)OC(C)(C)C[C@H]6O)O[C@](C)(CO)C[C@H]2O [cephalostatin 1, Cephalostatin 1] | 39 ± 10 nM | 9.4 fold | 78 ± 15 nM | – | – | – | – |
| C[C@H](CCCC(C)(C)O)[C@H]1CC[C@H]2[C@@H]3CC=C4C[C@@H](O)CC[C@]4(C)[C@H]3CC[C@]12C [Compound 25-OHC, 25-hydroxycholesterol] | – | – | – | 32 ± 14 nM | 54 ± 23 nM | – | – |
| schweinfurthin A | 68 ± 23 nM | did not affect | 2600 ± 570 nM | – | – | approximately 40 fold | ~40 fold |
| COc1ccc(C(=O)O[C@H]2[C@H](O[C@@H]3[C@@H](OC(C)=O)[C@H](O[C@H]4C[C@H]5[C@@H]6CC=C7C[C@@H](O)CC[C@]7(C)[C@H]6CC[C@]5(C)[C@@]4(O)[C@H](C)C(=O)CCC(C)C)OC[C@@H]3O)OC[C@@H](O)[C@@H]2O)cc1 [OSW-1] | 26 ± 9 nM | did not affect | 54 ± 11 nM | – | – | – | – |
